From patent US20050227306A1, “Fluorescence polarization assay to detect protease cleavage” (priority 2003, published 2005)

Legend:
TEV protease = biological target: T1, TEV protease (Tobacco etch virus, UniProt P04517); assay: Effect of additives on TEV protease cleavage measured by fluorescence polarization; format: biochemical; settings: At3g16990 in pVP15 substrate, 0.5 μM TEV protease, pH 8.0, ca. 22° C.; increasing additive concentrations
T1 construct: TEV Protease, 0.5 μM
Excerpt: The following series of Examples exemplify the efficacy of using the disclosed invention in measuring protease cleavage in the presence of various potentially interfering compounds. Briefly, each reaction comprised mixing three components: 1) a mixture of labeled and unlabeled protease substrates; 2) TEV protease; and 3) the potentially interfering additive. The results are presented graphically in FIGS. 3-14 The reaction buffer contained the following components (final concentrations noted):
Each stated additive as shown in FIGS. 3-14 was added at the stated concentrations. The TEV protease was added to each reaction last, just prior to placing the reactions into the photometer. The reactions were followed in real-time, at ambient temperature (ca. 22° C.). Fluorescence anisotropy was measured at the time points noted in FIGS. 3-14.
The following figures present the fluorescence data for each of the stated additives: FIG. 3: urea (M), FIG. 4: sucrose concentration (M), FIG. 5: sodium dodecylsulfate (SDS) (wt/vol %), FIG. 6: sodium chloride (NaCl) (M), FIG. 7: guanidium hydrochloride (M), FIG. 8: glycine concentration (wt/vol %), FIG. 9: glycerol concentration (vol/vol %), FIG. 10: ethanol concentration (vol/vol %), FIG. 11: ethylene glycol concentration (vol/vol %), FIG. 12: dimethylsulfoxide (DMSO) (vol/vol %), FIG. 13: calcium chloride (CaCl2) (M), and FIG. 14: arginine (wt/vol %).
Fluorescence anisotropy was measured using a Tecan 384 Ultra plate spectrofluorimeter. Excitation was at 485 nm (25 nm bandpass) and emission was measured at 525 nm (20 nm bandpass). Anisotropy measurements were made at 2 to 5 min intervals for 5 hours. The observed anisotropy is the sum of the anisotropy of the individual fluorescent components, or robs=Σfiri, where robs, is the observed anisotropy, fi is the fractional fluorescence intensity of component i, and ri is the anisotropy of component i. See J. Lakowicz, “Principles of fluorescence spectroscopy,” Kluwer Academic/Plenum Publishers, New York, 1999. For a two-state system with the fluorophore attached to either the intact fusion protein or to the small peptide produced by proteolysis, the fractional extent of reaction is given by ξ=(rf−robs)/(rf−rc), where rf is the fluorescence anisotropy of the intact fusion protein and rc is the fluorescence anisotropy of small peptide. This treatment assumes that there is no difference in the fluorescence intensity of the fluorophore attached to either the fusion protein or the small peptide, and this is justified by the observation that there was no significant change in total fluorescence intensity as the reactions proceeded.

[1] = test system: substrate 21-F (His6-tetraCys-X-MBP); assay: Fluorescence anisotropy proteolysis assay with substrate 21-F; format: biochemical, E. coli; settings: initial rate by fluorescence anisotropy, normalized to the rate of the protease with its preferred cognate substrate
Excerpt: (§1) All protease substrates were expressed in E. coli Rosetta pLacI Rare to provide compensation for rare codons (see Kirienko et al. (2004) Biochemistry (Mosc) 69:527-535; available commercially from Novagen, a wholly-owned subsidiary of EMD Biosciences, Inc., Madison, Wis.). The expression was done in 2-L PET bottles (Millard et al. (2003) Protein Expr. Purif. 29:311-320). The protein purification followed typical IMAC purification procedures (see Sambrook & Russell, supra) including elution in an imidazole gradient from 0-350 mM. After SDS-PAGE analysis, appropriate fractions were pooled and desalted into 20 mM phosphate, pH 7.5, containing 100 mM NaCl and 0.3 mM TCEP. […]
(§2) Protease assays were conducted using a combination of 20 μM unlabeled and 40 nM labeled protease substrates unless noted otherwise. […] This decreased the amount of time between mixing and measurement to less than three minutes and allowed the fluorescence anisotropy measured at the first time point to closely approximate the anisotropy of the intact fusion protein. […]
(§3) Fluorescence anisotropy was measured using a Tecan 384 Ultra plate spectrofluorimeter. Excitation was at 485 nm (25 nm bandpass) and emission was measured at 525 nm (20 nm bandpass). […] See J. Lakowicz, “Principles of fluorescence spectroscopy,” Kluwer Academic/Plenum Publishers, New York, 1999. […]

[2] = test system: substrate 22-F (His6-tetraCys-X-MBP); assay: Fluorescence anisotropy proteolysis assay with substrate 22-F; format: biochemical, E. coli; settings: for Relative rate of reaction, substrate 22F: initial rate by fluorescence anisotropy, normalized to the rate of the protease with its preferred cognate substrate
Excerpt: (§4) All protease substrates were expressed in E. coli Rosetta pLacI Rare to provide compensation for rare codons (see Kirienko et al. (2004) Biochemistry (Mosc) 69:527-535; available commercially from Novagen, a wholly-owned subsidiary of EMD Biosciences, Inc., Madison, Wis.). The expression was done in 2-L PET bottles (Millard et al. (2003) Protein Expr. Purif. 29:311-320). The protein purification followed typical IMAC purification procedures (see Sambrook & Russell, supra) including elution in an imidazole gradient from 0-350 mM. After SDS-PAGE analysis, appropriate fractions were pooled and desalted into 20 mM phosphate, pH 7.5, containing 100 mM NaCl and 0.3 mM TCEP. Proteins were concentrated to a final concentration of 300-600 μM using centrifugal concentrators. Glycerol (50% v/v) was added to all protease substrates except 26-F and frozen at −20° C. The Arabidopsis targets At3g03410 (expressed from pVP14) and At3g16990 (expressed from pVP15) were flash frozen as drops in liquid nitrogen and stored at −80° C.
(§5) A 20% molar excess of the tetraCys reagent was incubated overnight (˜12 h) with protein (10-100 μg) at room temperature in 20 mM phosphate, pH 7.5, containing 100 mM NaCl, 0.3 mM TCEP, and 1 mM β-mercaptoethanol. After the labeling reaction, unincorporated fluorophore was removed by two successive cycles of 10-fold dilution and concentration using centrifugal concentrators.
Protease assays were conducted using a combination of 20 μM unlabeled and 40 nM labeled protease substrates unless noted otherwise. TEV protease reactions were conducted in 20 mM Tris-HCl, pH 8.0, containing 100 mM NaCl, 0.3 mM TCEP, 1 mM β-mercaptoethanol, and 5 mM EDTA. Reactions with thrombin, enterokinase, and Factor Xa were performed in the buffer supplied by the manufacturer. Trypsin reactions were carried out in the buffer supplied for thrombin. Assays were carried out in black Cliniplate 384 well plates in a 40 μL reaction volume or in black Greiner 384 well plates using an 80 μL reaction volume. […] This decreased the amount of time between mixing and measurement to less than three minutes and allowed the fluorescence anisotropy measured at the first time point to closely approximate the anisotropy of the intact fusion protein. […]
Fluorescence anisotropy was measured using a Tecan 384 Ultra plate spectrofluorimeter. Excitation was at 485 nm (25 nm bandpass) and emission was measured at 525 nm (20 nm bandpass). […] The observed anisotropy is the sum of the anisotropy of the individual fluorescent components, or robs=Σfiri, where robs, is the observed anisotropy, fi is the fractional fluorescence intensity of component i, and ri is the anisotropy of component i. See J. Lakowicz, “Principles of fluorescence spectroscopy,” Kluwer Academic/Plenum Publishers, New York, 1999. For a two-state system with the fluorophore attached to either the intact fusion protein or to the small peptide produced by proteolysis, the fractional extent of reaction is given by ξ=(rf−robs)/(rf−rc), where rf is the fluorescence anisotropy of the intact fusion protein and rc is the fluorescence anisotropy of small peptide. This treatment assumes that there is no difference in the fluorescence intensity of the fluorophore attached to either the fusion protein or the small peptide, and this is justified by the observation that there was no significant change in total fluorescence intensity as the reactions proceeded. […]

[3] = test system: substrate 23-F (His6-tetraCys-X-MBP); assay: Fluorescence anisotropy proteolysis assay with substrate 23-F; format: biochemical, E. coli; settings: initial rate by fluorescence anisotropy, normalized to the rate of the protease with its preferred cognate substrate
Excerpt: as §1, §2, §3

[4] = test system: substrate 24-F (His6-tetraCys-X-MBP); assay: Fluorescence anisotropy proteolysis assay with substrate 24-F; format: biochemical, E. coli; settings: initial rate by fluorescence anisotropy, normalized to the rate of the protease with its preferred cognate substrate
Excerpt: as §1, §2, §3

[5] = test system: substrate 25-F (His6-tetraCys-X-MBP); assay: Fluorescence anisotropy proteolysis assay with substrate 25-F; format: biochemical, E. coli; settings: for Relative rate of reaction, substrate 25F: initial rate by fluorescence anisotropy, normalized to the rate of the protease with its preferred cognate substrate; for Specific reaction rate: substrate 25-F
Excerpt: as §4, §5
as §2, with “otherwise. TEV protease reactions were conducted in 20 mM Tris-HCl, pH 8.0, containing 100 mM NaCl, 0.3 mM TCEP, 1 mM β-mercaptoethanol, and 5 mM EDTA.” for “otherwise.”
Fluorescence anisotropy was measured using a Tecan 384 Ultra plate spectrofluorimeter. Excitation was at 485 nm (25 nm bandpass) and emission was measured at 525 nm (20 nm bandpass). […] The observed anisotropy is the sum of the anisotropy of the individual fluorescent components, or robs=Σfiri, where robs, is the observed anisotropy, fi is the fractional fluorescence intensity of component i, and ri is the anisotropy of component i. See J. Lakowicz, “Principles of fluorescence spectroscopy,” Kluwer Academic/Plenum Publishers, New York, 1999. For a two-state system with the fluorophore attached to either the intact fusion protein or to the small peptide produced by proteolysis, the fractional extent of reaction is given by ξ=(rf−robs)/(rf−rc), where rf is the fluorescence anisotropy of the intact fusion protein and rc is the fluorescence anisotropy of small peptide. […]

[6] = test system: substrate 26-F (His6-tetraCys-X-MBP); assay: Fluorescence anisotropy proteolysis assay with substrate 26-F; format: biochemical, E. coli; settings: initial rate by fluorescence anisotropy, normalized to the rate of the protease with its preferred cognate substrate
Excerpt: as §1, §2, §3

[7] = reactions with cognate His6-tetraCys-X-MBP substrates

T1 sequence (P04517 2038-2279): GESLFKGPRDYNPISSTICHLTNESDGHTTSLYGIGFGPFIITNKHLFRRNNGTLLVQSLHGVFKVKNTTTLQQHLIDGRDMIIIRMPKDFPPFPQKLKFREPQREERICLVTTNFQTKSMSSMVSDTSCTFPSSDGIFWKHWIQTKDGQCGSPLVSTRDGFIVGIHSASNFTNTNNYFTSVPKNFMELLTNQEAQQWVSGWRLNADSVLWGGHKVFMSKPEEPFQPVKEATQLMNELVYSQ

Molecule: [Ca+2].[Cl-].[Cl-] [CaCl2, calcium chloride]
- Effect of additive on fractional completion of the TEV protease cleavage reaction (TEV protease): little or no effect

Molecule: C[S+](C)[O-] [DMSO, dimethylsulfoxide]
- Effect of additive on fractional completion of the TEV protease cleavage reaction (TEV protease): little or no effect

Molecule: [Cl-].[Na+] [NaCl, sodium chloride]
- Effect of additive on fractional completion of the TEV protease cleavage reaction (TEV protease): little or no effect

Molecule: CCCCCCCCCCCCOS(=O)(=O)[O-].[Na+] [SDS, sodium dodecylsulfate]
- Effect of additive on fractional completion of the TEV protease cleavage reaction (TEV protease): considerable inhibition

Molecule: N=C(N)NCCC[C@H](N)C(=O)O [arginine]
- Effect of additive on fractional completion of the TEV protease cleavage reaction (TEV protease): considerable inhibition

Molecule: CCO [ethanol]
- Effect of additive on fractional completion of the TEV protease cleavage reaction (TEV protease): considerable inhibition

Molecule: OCCO [ethylene glycol]
- Effect of additive on fractional completion of the TEV protease cleavage reaction (TEV protease): considerable inhibition

Molecule: OCC(O)CO [glycerol]
- Effect of additive on fractional completion of the TEV protease cleavage reaction (TEV protease): little or no effect

Molecule: NCC(=O)O [glycine]
- Effect of additive on fractional completion of the TEV protease cleavage reaction (TEV protease): little or no effect

Molecule: Cl.N=C(N)N [guanidium hydrochloride]
- Effect of additive on fractional completion of the TEV protease cleavage reaction (TEV protease): considerable inhibition

Molecule: OC[C@H]1O[C@@](CO)(O[C@H]2O[C@H](CO)[C@@H](O)[C@H](O)[C@H]2O)[C@@H](O)[C@@H]1O [sucrose]
- Effect of additive on fractional completion of the TEV protease cleavage reaction (TEV protease): little or no effect

Molecule: NC(N)=O [urea]
- Effect of additive on fractional completion of the TEV protease cleavage reaction (TEV protease): considerable inhibition

Molecule: Thrombin
- Relative rate of reaction, substrate 21F [1]: 0.0
- Relative rate of reaction, substrate 22F [2]: 0.4
- Relative rate of reaction, substrate 23F [3]: −0.02
- Relative rate of reaction, substrate 24F [4]: 0.0
- Relative rate of reaction, substrate 25F [5]: 1
- Specific reaction rate ([5]; slope of initial rate versus protease concentration, errors two standard deviations): 240±20 moles substrate proteolyzed per mole of protease per hour
- Specific reaction rate ([5]; thrombin units adjusted for equivalence with enterokinase and Factor Xa unit definition): 0.20±0.02 nmole substrate proteolyzed per unit enzyme per hour
- Relative rate of reaction, substrate 26F [6]: 0.0

Molecule: Trypsin: protease tested on tetraCys-labeled His6-tetraCys-X-MBP substrates
- Relative rate of reaction, substrate 21F [1]: 0.3
- Relative rate of reaction, substrate 22F [2]: 1
- Turnover number, fold greater than for TEV protease [2, 7]: 10 fold
- Turnover number, fold greater than that observed for thrombin [2, 7]: 3 fold
- Specific reaction rate ([2]; substrate 22-F, slope of initial rate versus protease concentration, errors two standard deviations): 760±60 moles substrate proteolyzed per mole of protease per hour
- Relative rate of reaction, substrate 23F [3]: 0.1
- Relative rate of reaction, substrate 24F [4]: 0.4
- Relative rate of reaction, substrate 25F [5]: 0.5
